# Experimental data taken from US20220062379A1, “METHODS AND COMPOSITIONS FOR MODULATING IMMUNE DYSREGULATION” (The General Hospital Corporation, priority 2019, published 2022).
# Key:
# [1] = tested on: IL1β; test: Whole blood cytokine release, IL-1β (ELISA); type: cell-based; conditions: diluted human whole blood, LPS 1.5 ng/ml, 18 h, mean ± 95% confidence intervals; for inhibition at 25 µM / inhibition at 50 µM / inhibition at 100 µM: read-out: % Inhibition of cytokine release, relative to vehicle: IL1β
# Method: (§1) Fresh, anonymized, heparinized, human blood from male donors was diluted 1:3 with RPMI containing penicillin and streptomycin. 150 μl diluted blood was added to each well of a 96 well plate then acclimatized to 37° C. and 5% CO2 for 1 hour. Inhibitors were prepared as described below then added to the diluted blood in 25 μl volume. After a further hour at 37° C. with 5% CO2, diluted blood was stimulated with LPS diluted in 25 μl RPMI containing penicillin and streptomycin to a final concentration of 1.5 ng/ml. After 18 h at 37° C. and 5% CO2, diluted blood was centrifuged at 500×g for 5 min and supernatant collected and stored at −20° C. until ELISAs were performed. Data are presented as mean inhibition relative to vehicle control ±95% confidence intervals, n=3-4 independent experiments.
# (§2) Inhibitors and vehicles used for resuspension were: Compound 26, EMD Millipore, Cat #5.31237.0001, resuspended in DMSO; PF 06650833, R & D Systems, Cat #6373, resuspended in DMSO; OEPC (oleyloxyethyl phosphorylcholine), Santa Cruz Biotechnology, item # sc-200711, resuspended in DMSO; YM26734, Santa Cruz Biotechnology, item # sc-204410, resuspended in DMSO; Isoquercetin, Cayman Chemical, item #24926, resuspended in DMSO; ISA-2011B, Medchem Express, cat # HY-16937, resuspended in DMSO; Benzamil, TOCRIS, Cat #3380/10, resuspended in water; Cell permeable NFAT inhibitor (11R-VIVIT), Tocris, Cat #5710, resuspended in PBS. ELISAs were performed using Duoset reagents from R&D systems, catalogue # DY210 (human TNF), # DY206 (human IL6), and #DY201 (human IL-1β).
# [2] = tested on: IL6; test: Whole blood cytokine release, IL6 (ELISA); type: cell-based; conditions: diluted human whole blood, LPS 1.5 ng/ml, 18 h, mean ± 95% confidence intervals; for inhibition at 25 µM / inhibition at 50 µM / inhibition at 100 µM: read-out: % Inhibition of cytokine release, relative to vehicle: IL6
# Method: as §1, §2
# [3] = tested on: TNF; test: Whole blood cytokine release, TNF (ELISA); type: cell-based; conditions: diluted human whole blood, LPS 1.5 ng/ml, 18 h, mean ± 95% confidence intervals; for inhibition at 25 µM / inhibition at 50 µM / inhibition at 100 µM: read-out: % Inhibition of cytokine release, relative to vehicle: TNF
# Method: as §1, §2
# [4] = tested on: proinflammatory cytokine release; test: Whole blood cytokine release assay, cytokines not itemised; type: cell-based, human; conditions: for Effect on (proinflammatory) cytokine release in whole blood assay (in words): in response to LPS stimulation
# Method: as §1, §2
# Where direct chemical modulators of the proposed inflammatory modulators were available, we tested their effect on endothelial permeability using ECIS and/or on the leukocyte inflammatory response using the whole blood assay described above.
# Agents used were SJ000291942 (Sigma #SML2087-5MG) and saxagliptin (Santa Cruz Biotechnology #sc-473161), both resuspended in DMSO.
# [5] = molecular target: NFATC2 (Nuclear Factor Of Activated T Cells 2) (human)
compound,measurement,setting,value
"O=c1c(O[C@@H]2O[C@H](CO)[C@@H](O)[C@H](O)[C@H]2O)c(-c2ccc(O)c(O)c2)oc2cc(O)cc(O)c12 [Isoquertecin, Isoquercetin]",inhibition at 25 µM,[1]; 25 μM,15%
same,inhibition at 50 µM,[1]; 50 μM,25%
same,inhibition at 100 µM,[1]; 100 μM,19%
same,inhibition at 25 µM,[2]; 25 μM,26%
same,inhibition at 50 µM,[2]; 50 μM,31%
same,inhibition at 100 µM,[2]; 100 μM,26%
same,inhibition at 25 µM,[3]; 25 μM,9%
same,inhibition at 50 µM,[3]; 50 μM,23%
same,inhibition at 100 µM,[3]; 100 μM,29%
CCc1ccc(OCC(=O)Nc2ccc(F)c([N+](=O)[O-])c2)cc1 [SJ000291942],Proinflammatory cytokine secretion from whole blood (in words),"[4]; whole blood with and without LPS, BMP receptor signaling agonist, FIG. 81C",enhances proinflammatory cytokine secretion
CCCCCCCCCCCCCCCCCCc1ccc(C(=O)/C=C/C(=O)O)cc1 [OBAA],Effect on (proinflammatory) cytokine release in whole blood assay (in words),[4],dose-dependent inhibition
NC(=NCc1ccccc1)NC(=O)c1nc(Cl)c(N)nc1N [Benzamil],inhibition at 25 µM,[1]; 25 μM,32%
same,inhibition at 50 µM,[1]; 50 μM,48%
same,inhibition at 100 µM,[1]; 100 μM,60%
same,inhibition at 25 µM,[2]; 25 μM,11%
same,inhibition at 50 µM,[2]; 50 μM,22%
same,inhibition at 100 µM,[2]; 100 μM,65%
same,inhibition at 25 µM,[3]; 25 μM,4%
same,inhibition at 50 µM,[3]; 50 μM,23%
same,inhibition at 100 µM,[3]; 100 μM,69%
"CCCCCCCC/C=C\CCCCCCCCOCCOP(=O)([O-])OCC[N+](C)(C)C [OEPC, oleyloxyethyl phosphorylcholine]","% Inhibition of cytokine release, relative to vehicle: IL6",[2]; 12.5 μM,−3% ± 17.6%
same,"% Inhibition of cytokine release, relative to vehicle: IL6",[2]; 25 μM,39% ± 14.1%
same,"% Inhibition of cytokine release, relative to vehicle: IL6",[2]; 50 μM,65% ± 11.7%
same,"% Inhibition of cytokine release, relative to vehicle: IL6",[2]; 100 μM,83% ± 6.2%
same,"% Inhibition of cytokine release, relative to vehicle: TNF",[3]; 12.5 μM,−9% ± 17.3%
same,"% Inhibition of cytokine release, relative to vehicle: TNF",[3]; 25 μM,6% ± 17.4%
same,"% Inhibition of cytokine release, relative to vehicle: TNF",[3]; 50 μM,37% ± 14.7%
same,"% Inhibition of cytokine release, relative to vehicle: TNF",[3]; 100 μM,57% ± 6.5%
Cell permeable NFAT inhibitor (11R-VIVIT) (peptide),"% Inhibition of cytokine release, relative to vehicle (TNF; LPS-stimulated human whole blood, 50 µM 11R-VIVIT)",[5],79%
CCCCCCCCCCCC(=O)c1c(O)c(C(=O)CCCCCCCCCCC)c(O)c(C2CC(c3ccc(O)cc3)Oc3cc(O)ccc32)c1O (stereo not shown) [YM26734],Effect on (proinflammatory) cytokine release in whole blood assay (in words),[4],dose-dependent inhibition
same,"% Inhibition of cytokine release, relative to vehicle: IL1β",[1]; 12.5 μM,51% ± 12.0%
same,"% Inhibition of cytokine release, relative to vehicle: IL1β",[1]; 25 μM,65% ± 3.5%
same,"% Inhibition of cytokine release, relative to vehicle: IL1β",[1]; 50 μM,73% ± 11.3%
same,"% Inhibition of cytokine release, relative to vehicle: IL1β",[1]; 100 μM,78% ± 8.9%
same,"% Inhibition of cytokine release, relative to vehicle: IL6",[2]; 12.5 μM,35% ± 18.8%
same,"% Inhibition of cytokine release, relative to vehicle: IL6",[2]; 25 μM,51% ± 29.5%
same,"% Inhibition of cytokine release, relative to vehicle: IL6",[2]; 50 μM,67% ± 21.7%
same,"% Inhibition of cytokine release, relative to vehicle: IL6",[2]; 100 μM,67% ± 15.1%
same,"% Inhibition of cytokine release, relative to vehicle: TNF",[3]; 12.5 μM,41% ± 17.6%
same,"% Inhibition of cytokine release, relative to vehicle: TNF",[3]; 25 μM,55% ± 22.6%
same,"% Inhibition of cytokine release, relative to vehicle: TNF",[3]; 50 μM,64% ± 26.1%
same,"% Inhibition of cytokine release, relative to vehicle: TNF",[3]; 100 μM,52% ± 22.7%
11R-VIVIT,"% Inhibition of cytokine release, relative to vehicle: IL1β",[1]; 12.5 μM,32% ± 13.0%
same,"% Inhibition of cytokine release, relative to vehicle: IL1β",[1]; 25 μM,48% ± 27.4%
same,"% Inhibition of cytokine release, relative to vehicle: IL1β",[1]; 50 μM,51% ± 26.3%
same,"% Inhibition of cytokine release, relative to vehicle: IL6",[2]; 12.5 μM,−10% ± 16.7%
same,"% Inhibition of cytokine release, relative to vehicle: IL6",[2]; 25 μM,2% ± 32.9%
same,"% Inhibition of cytokine release, relative to vehicle: IL6",[2]; 50 μM,87% ± 17.9%
same,"% Inhibition of cytokine release, relative to vehicle: TNF",[3]; 12.5 μM,23% ± 12.2%
same,"% Inhibition of cytokine release, relative to vehicle: TNF",[3]; 25 μM,40% ± 7.1%
same,"% Inhibition of cytokine release, relative to vehicle: TNF",[3]; 50 μM,79% ± 14.3%
CN1CC(=O)N2[C@H](c3c[nH]c4ccc(Cl)cc34)c3cc4c(cc3C[C@H]2C1=O)OCO4 [ISA-2011B],Effect on (proinflammatory) cytokine release in whole blood assay (in words),[4],inhibits cytokine release
same,"% Inhibition of cytokine release, relative to vehicle: IL1β",[1]; 1 μM,17% ± 9%
same,"% Inhibition of cytokine release, relative to vehicle: IL1β",[1]; 10 μM,23% ± 6%
same,"% Inhibition of cytokine release, relative to vehicle: IL1β",[1]; 100 μM,86% ± 2.9%
same,"% Inhibition of cytokine release, relative to vehicle: IL6",[2]; 1 μM,−7% ± 7.7%
same,"% Inhibition of cytokine release, relative to vehicle: IL6",[2]; 10 μM,6% ± 19.7%
same,"% Inhibition of cytokine release, relative to vehicle: IL6",[2]; 100 μM,24% ± 19.5%
same,"% Inhibition of cytokine release, relative to vehicle: TNF",[3]; 1 μM,1% ± 11.2%
same,"% Inhibition of cytokine release, relative to vehicle: TNF",[3]; 10 μM,17% ± 7.6%
same,"% Inhibition of cytokine release, relative to vehicle: TNF",[3]; 100 μM,55% ± 8.8%
